# In patent publication US6503881B2 (priority 1996, dated 2003):
# Where two headings read alike, the source gives them in different places.
# Tested on: E. faecium
# Assay type: cell-based
# Conditions: for MBI 26 MIC, +Teicoplanin: in combination with teicoplanin; for MIC in combination: Teicoplanin + MBI 26
substance,measurement,setting,value
KWKSFIKKLTSAAKKVVTTAKPLISS [MBI 26],MIC Alone,"E. faecium 97001 VanB, agent alone",64 µg/mL
same,"MBI 26 MIC, +Teicoplanin",E. faecium 97001 VanB,4 µg/mL
same,MIC Alone,"E. faecium 97002 VanB, agent alone",64 µg/mL
same,"MBI 26 MIC, +Teicoplanin",E. faecium 97002 VanB,1 µg/mL
same,MIC Alone,"E. faecium 97003 VanB, agent alone",64 µg/mL
same,"MBI 26 MIC, +Teicoplanin",E. faecium 97003 VanB,1 µg/mL
same,MIC Alone,"E. faecium 97005 VanB, agent alone",64 µg/mL
same,"MBI 26 MIC, +Teicoplanin",E. faecium 97005 VanB,2 µg/mL
same,MIC Alone,"E. faecium 97006 VanB, agent alone",64 µg/mL
same,"MBI 26 MIC, +Teicoplanin",E. faecium 97006 VanB,4 µg/mL
same,MIC Alone,"E. faecium 97007 VanB, agent alone",64 µg/mL
same,"MBI 26 MIC, +Teicoplanin",E. faecium 97007 VanB,1 µg/mL
same,MIC Alone,"E. faecium 97008 VanB, agent alone",64 µg/mL
same,"MBI 26 MIC, +Teicoplanin",E. faecium 97008 VanB,4 µg/mL
same,MIC Alone,"E. faecium 97009 VanB, agent alone",32 µg/mL
same,"MBI 26 MIC, +Teicoplanin",E. faecium 97009 VanB,1 µg/mL
same,MIC Alone,"E. faecium 97010 VanB, agent alone",64 µg/mL
same,"MBI 26 MIC, +Teicoplanin",E. faecium 97010 VanB,4 µg/mL
same,MIC Alone,"E. faecium 97011 VanB, agent alone",64 µg/mL
same,"MBI 26 MIC, +Teicoplanin",E. faecium 97011 VanB,4 µg/mL
same,MIC Alone,"E. faecium 97012 VanB, agent alone",64 µg/mL
same,"MBI 26 MIC, +Teicoplanin",E. faecium 97012 VanB,4 µg/mL
same,MIC Alone,"E. faecium 97013 VanB, agent alone",64 µg/mL
same,"MBI 26 MIC, +Teicoplanin",E. faecium 97013 VanB,8 µg/mL
same,MIC Alone,"E. faecium 97014 VanB, agent alone",32 µg/mL
same,"MBI 26 MIC, +Teicoplanin",E. faecium 97014 VanB,4 µg/mL
same,MIC Alone,"E. faecium 97015 VanB, agent alone",64 µg/mL
same,"MBI 26 MIC, +Teicoplanin",E. faecium 97015 VanB,4 µg/mL
same,MIC Alone,"E. faecium 97016 VanB, agent alone",64 µg/mL
same,"MBI 26 MIC, +Teicoplanin",E. faecium 97016 VanB,4 µg/mL
same,MIC Alone,E. faecium 97017 VanA,64 µg/mL
same,MIC in combination,E. faecium 97017 VanA,4 µg/mL
same,MIC Alone,E. faecium 97018 VanA,64 µg/mL
same,MIC in combination,E. faecium 97018 VanA,8 µg/mL
same,MIC Alone,E. faecium 97019 VanA,64 µg/mL
same,MIC in combination,E. faecium 97019 VanA,16 µg/mL
same,MIC Alone,E. faecium 97020 VanA,64 µg/mL
same,MIC in combination,E. faecium 97020 VanA,16 µg/mL
same,MIC Alone,E. faecium 97021 VanA,64 µg/mL
same,MIC in combination,E. faecium 97021 VanA,32 µg/mL
same,MIC Alone,E. faecium 97022 VanA,64 µg/mL
same,MIC in combination,E. faecium 97022 VanA,4 µg/mL
same,MIC Alone,E. faecium 97023 VanA,64 µg/mL
same,MIC in combination,E. faecium 97023 VanA,4 µg/mL
same,MIC Alone,E. faecium 97024 VanA,64 µg/mL
same,MIC in combination,E. faecium 97024 VanA,8 µg/mL
same,MIC Alone,E. faecium 97025 VanA,16 µg/mL
same,MIC in combination,E. faecium 97025 VanA,4 µg/mL
same,MIC Alone,E. faecium 97026 VanA,64 µg/mL
same,MIC in combination,E. faecium 97026 VanA,16 µg/mL
same,MIC Alone,E. faecium 97027 VanA,64 µg/mL
same,MIC in combination,E. faecium 97027 VanA,8 µg/mL
same,MIC Alone,E. faecium 97028 VanA,8 µg/mL
same,MIC in combination,E. faecium 97028 VanA,8 µg/mL
same,MIC Alone,E. faecium 97029 VanA,64 µg/mL
same,MIC in combination,E. faecium 97029 VanA,8 µg/mL
same,MIC Alone,E. faecium 97030 VanA,64 µg/mL
same,MIC in combination,E. faecium 97030 VanA,32 µg/mL
same,MIC Alone,E. faecium 97031 VanA,64 µg/mL
same,MIC in combination,E. faecium 97031 VanA,32 µg/mL
same,MIC Alone,E. faecium 97032 VanA,64 µg/mL
same,MIC in combination,E. faecium 97032 VanA,8 µg/mL
same,MIC Alone,E. faecium 97033 VanA,64 µg/mL
same,MIC in combination,E. faecium 97033 VanA,8 µg/mL
same,MIC Alone,E. faecium 97034 VanA,64 µg/mL
same,MIC in combination,E. faecium 97034 VanA,8 µg/mL
same,MIC Alone,E. faecium 97035 VanA,64 µg/mL
same,MIC in combination,E. faecium 97035 VanA,0.5 µg/mL
same,MIC Alone,E. faecium 97036 VanA,8 µg/mL
same,MIC in combination,E. faecium 97036 VanA,4 µg/mL
